In patent EP0029617A1, “Use of tertiary heterocyclic amines as synergists in pesticides; derivatives of cycloamines” (priority 1979, dated 1981):

System: Kornkäfer (sitophilus granarius L)
Experiment: whole plant or invertebrate
Type: in vivo
Details: for Wirksamkeit in % Substanz allein / mortality at 1000 µg/mL: amine 1 mg/ml in Aceton mixed 1 : 1 with Aceton, 2 ml per dish, 25 weevils, dead counted after 3 h; for Wirksamkeit in % Substanz +Ripcord: amine 1 mg/ml mixed 1 : 1 with Ripcord 0,01 mg/ml; for Wirksamkeit in % Substanz +Ripcord / Wirksamkeit in % Substanz +Talcord: 3 h; for Wirksamkeit in % Substanz +Talcord: amine 1 mg/ml mixed 1 : 1 with Talcord 0,01 mg/ml; for Synergistischer Faktor bei Ripcord: amine 1 mg/ml + Ripcord 0,01 mg/ml; for Synergistischer Faktor bei Talcord: amine 1 mg/ml + Talcord 0,01 mg/ml; for mortality at 1000 µg/mL: Sitophilus granarius, read-out: Wirksamkeit in % Substanz allein
Protocol: Test von tertiären, heterocyclischen Aminen allein und im Gemisch mit Pyrethroiden an Kornkäfern (sitophilus granarius L)
In Petrischalen mit 15 cm Durchmesser mit talcumbepuderten Seitenwänden, um das Entfliehen der Kornkäfer zu verhindern, wurden jeweils 2 ml der Acetonlösungen einpipettiert und durch vorsichtiges Schwenken der Schalen gleichmäßig auf dem Boden verteilt. Nach dem Abdampfen des Acetons und dem Antrocknen der Beläge wurden in jede Schale 25 Kornkäfer eingezählt. Nach einer Stunde wurde jeweils ein 12,5 cm Rundfilter in die Schalen eingelegt, um den Käfern das Befreien aus der Rückenlage zu ermöglichen, was auf der glatten Glasplatte nicht möglich ist. Die lichtscheuen Käfer verkrochen sich mit Vorliebe unter die Filter und blieben so ständig mit den Wirkstoffbelägen in Kontakt. Alle Versuche liefen mit 3 Wiederholungen. Nach 3 h wurden die toten Käfer ausgezählt.
In der Tabelle 3 ist jeweils der Durchschnitt der Summe der 4 Einzelwerte angegeben. 25 tote Kornkäfer entsprechen dabei einer Wirkung von 100 %. Die Temperaturen betrugen während der Tests im Durchschnitt 19 - 21°C. Der synergistische Faktor berechnet sich analog wie in Beispiel 1 angegeben.
Die zu prüfenden tertiären, heterocyclischen Amine wurden - mit 1 mg Wirkstoff pro ml als Acetonlösungen angesetzt. Sie wurden im Verhältnis 1 : 1 mit Ripcord bzw. Talcord, die mit 0,01 mg Wirkstoff pro ml als Acetonlösung vorlagen, gemischt. Die Einzelkomponenten wurden im Verhältnis 1 : 1 mit Aceton gemischt.
Auch bei diesen Versuchen zeigten die Kontrollversuche stets bei Versuchsende eine Mortalität der Kornkäfer von 0 %.
Die synergistische Wirkung der tertiären, heterocyclischen Amine auf die Pyrethroide ist auch dann noch deutlich, wenn das Amin in wesentlich niederen Aufwandmengen eingesetzt wird, als dies in Beispiel 3 beschrieben wurde. Die Ergebnisse sind in der Tabelle 4 zusammengestellt. Dieser Versuch zeigt auch, daß Amine mit insektiziden Eigenschaften, wenn sie in Konzentrationen unterhalb ihres insektiziden Wirkungsbereiches eingesetzt werden, immer noch gute synergistische Wirkungen im Gemisch mit Pyrethroiden zeigen. Die Versuche wurden wie im Beispiel 3 beschrieben mit Kornkäfern durchgeführt. Es wurden lediglich die Konzentrationen der eingesetzten tertiären, heterocyclischen Amine geändert. Für die Verdünnung Pyrethroid : Amin = 1 : 10 wurde das Amin mit 0,1 mg Wirkstoff/ml Acetonlösung eingesetzt. Für die Verdünnung 1 : 5 mit 0,05 mg Wirkstoff/ml.

Compound	Wirksamkeit in % Substanz allein	Wirksamkeit in % Substanz +Ripcord	Wirksamkeit in % Substanz +Talcord	Synergistischer Faktor bei Ripcord	Synergistischer Faktor bei Talcord	mortality at 1000 µg/mL [%]
C(CCCCN1CCCCC1)CCCN1CCCCC1 [1,8-N,N-Di-piperidino-octan]	61,2%	90,8%	65,2%			
C(CCCCCN1CCCC1)CCCCN1CCCC1 [1,10-N,N-Di-pyrrolidino-decan]	0%	80,0%	29,2%	2,54	3,00	
OCCN1CCCC1 [2-N-Pyrrolidino-ethanol]	0%	81,2%	53,2%	2,58	5,48	
CCCCCCCCN1CCCC1 [N-1-Octyl-pyrrolidin]		56,0%	40,0%	1,78	4,12	0
CCC(CC)N1CCCC1 [Pentyl-(3)-N-pyrrolidin]	0%	84,0%	46,8%	2,67	4,82	
C#CCN1CCCCC1CC (stereo not drawn) [N-1-Propanrgyl-2-ethyl-piperidin]	0%	92,0%	37,2%	2,92	3,84	
C1CCC(N2CCCC2)CC1 [N-Cyclohexyl-pyrrolidin]		68,0%	17,2%	2,16	1,72	0
CCOC(=O)CCN1CCOCC1 [N-Morpholino-propionsäure-ethylester]	0%	65,2%	26,8%	2,07	2,76	
C(CCCCN1CCCC1)CCCN1CCCC1 [1,8-N,N-Di-pyrrolidino-octan]	0%	88,0%	64,0%	2,79	6,60	
N-Hydrinden-piperidin	0%	42,8%	57,2%	1,36	5,90	
CCOC(=O)C(CC)N1CCCCC1 (stereo not drawn) [2-N-Piperidino-buttersäure-ethylester]	0%	61,2%	52,0%	1,94	5,36	
c1ccc(OCCN2CCCC2)cc1 [N-1-2-phenoxiethyl-pyrrolidin]	0%	53,2%	28,0%	1,69	2,88	
c1cc2c(cc1CN1CCCCCC1)OCO2 [N-Piperonyl-hexamethylenimin]		96,0%	68,0%	3,05	7,01	0
CCOC(=O)C(c1ccccc1)N1CCCC1 (stereo not drawn) [Phenyl-N-pyrrolidin-essigsäure-ethylester]	0%	92,0%	25,2%	2,92	2,60	
CCCCCCCCCCCCCCCCN1CCCCC1CC (stereo not drawn) [N-1-Hexadecyl-2-ethyl-piperidin]		74,8%	18,8%	2,37	1,94	0
CCCCC(CC)CN1CCCC1 (stereo not drawn) [N-1-(2-Ethyl)-hexyl-pyrrolidin]	0%	56,0%	41,2%	1,78	4,24	
